Experimental data from US10308659B2, “Pyridine derivatives” (Hoffmann-La Roche Inc., priority 2013, dated 2019).

Assays:
human CB2 receptors = human CB2 receptors (Homo sapiens (Human), UniProt P34972); experiment: cAMP assay, CHO cells expressing human CB2 receptors; format: cell-based; settings: functional cAMP assay, CHO cells expressing human CB2; read-out: EC50 CB2 human
Procedure: (§1) CHO cells expressing human CB1 or CB2 receptors are seeded 17-24 hours prior to the experiment 50.000 cells per well in a black 96 well plate with flat clear bottom (Corning Costar #3904) in DMEM (Invitrogen No. 31331), 1×HT supplement, with 10% fetal calf serum and incubated at 5% CO2 and 37° C. in a humidified incubator. The growth medium was exchanged with Krebs Ringer Bicarbonate buffer with 1 mM IBMX and incubated at 30° C. for 30 min. Compounds were added to a final assay volume of 100 μl and incubated for 30 min at 30° C. […] The time-resolved energy transfer is measured by a TRF reader (Evotec Technologies GmbH), equipped with a ND:YAG laser as excitation source. The plate is measured twice with the excitation at 355 nm and at the emission with a delay of 100 ns and a gate of 100 ns, total exposure time 10 s at 730 (bandwidth30 nm) or 645 nm (bandwidth 75 nm), respectively. The FRET signal is calculated as follows: FRET=T730-Alexa730-P(T645-B645) with P=Ru730-B730/Ru645-B645, where T730 is the test well measured at 730 nM, T645 is the test well measured at 645 nm, B730 and B645 are the buffer controls at 730 nm and 645 nm, respectively. cAMP content is determined from the function of a standard curve spanning from 10 μM to 0.13 nM cAMP.
(§2) EC50 values were determined using Activity Base analysis (ID Business Solution, Limited).

human CB1 receptors = human CB1 receptors (Homo sapiens (Human), UniProt P21554); experiment: cAMP assay, CHO cells expressing human CB1 receptors; format: cell-based; settings: functional cAMP assay, CHO cells expressing human CB1; read-out: EC50 CB1 human
human CB1 receptors, sequence (P21554 whole entry): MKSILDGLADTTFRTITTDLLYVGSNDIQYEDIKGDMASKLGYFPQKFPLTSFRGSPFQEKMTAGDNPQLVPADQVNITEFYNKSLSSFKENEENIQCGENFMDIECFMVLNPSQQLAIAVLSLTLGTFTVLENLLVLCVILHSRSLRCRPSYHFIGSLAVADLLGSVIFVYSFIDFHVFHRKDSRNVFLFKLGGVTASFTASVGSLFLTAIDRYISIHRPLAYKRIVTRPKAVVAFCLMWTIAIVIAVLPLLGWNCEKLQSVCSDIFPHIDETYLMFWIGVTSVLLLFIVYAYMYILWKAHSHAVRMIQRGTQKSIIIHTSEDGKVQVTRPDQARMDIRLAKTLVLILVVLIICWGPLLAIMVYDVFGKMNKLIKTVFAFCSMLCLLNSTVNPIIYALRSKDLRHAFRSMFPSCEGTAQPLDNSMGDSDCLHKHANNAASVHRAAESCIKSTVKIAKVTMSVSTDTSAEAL
Procedure: as §1, §2

human CB2 receptors, sequence (P34972 whole entry): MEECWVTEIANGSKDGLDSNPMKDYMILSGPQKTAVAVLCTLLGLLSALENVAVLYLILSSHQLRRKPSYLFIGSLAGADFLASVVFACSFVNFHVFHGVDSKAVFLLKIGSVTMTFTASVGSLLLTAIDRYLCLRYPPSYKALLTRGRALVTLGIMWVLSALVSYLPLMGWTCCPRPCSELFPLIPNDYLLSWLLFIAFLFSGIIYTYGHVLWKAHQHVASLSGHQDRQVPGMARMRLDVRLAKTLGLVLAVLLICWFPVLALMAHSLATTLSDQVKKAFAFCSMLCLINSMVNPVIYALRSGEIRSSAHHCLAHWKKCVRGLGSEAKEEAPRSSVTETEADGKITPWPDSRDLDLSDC

`CCN1CCC(Oc2cc(-c3noc(C(C)(C)C)n3)ncc2C2CC2)C1` (stereo not drawn) [Example 92, 5-tert-butyl-3-[5-cyclopropyl-4-(1-ethylpyrrolidin-3-yl)oxypyridin-2-yl]-1,2,4-oxadiazole] was tested, and the EC50 (human CB2 receptors) was 75.1 nM and the EC50 (human CB1 receptors) was 768 nM.
`CC(C)(C)c1nc(-c2cc(OCc3ccc(F)cc3)c(C3CC3)cn2)no1` [Example 53, 5-tert-butyl-3-[5-cyclopropyl-4-[(4-fluorophenyl)methoxy]pyridin-2-yl]-1,2,4-oxadiazole] showed an EC50 (human CB2 receptors) of 1.4 nM and an EC50 (human CB1 receptors) of 55.1 nM.
For `CC(C)(C)c1nnc(-c2cc(OC3CCOCC3)c(C3CC3)cn2)o1` [Example 98, 2-tert-butyl-5-[5-cyclopropyl-4-(oxan-4-yloxy)pyridin-2-yl]-1,3,4-oxadiazole], the EC50 (human CB2 receptors) was 42 nM and the EC50 (human CB1 receptors) was > 10000 nM.
In the case of `CC(C)CC1(C)N=C(c2cc(OCC(F)(F)F)c(C3CC3)cn2)NC1=O` (stereo not drawn) [Example 69, 2-[5-cyclopropyl-4-(2,2,2-trifluoroethoxy)pyridin-2-yl]-4-methyl-4-(2-methylpropyl)-1H-imidazol-5-one], the EC50 (human CB2 receptors) is reported as 9 nM and the EC50 (human CB1 receptors) is reported as > 10000 nM.
In the case of `CN1CCCCC1COc1cc(-c2noc(C(C)(C)C)n2)ncc1C1CC1` (stereo not drawn) [Example 97, 5-tert-butyl-3-[5-cyclopropyl-4-[(1-methylpiperidin-2-yl)methoxy]pyridin-2-yl]-1,2,4-oxadiazole], the EC50 (human CB2 receptors) is reported as 19 nM and the EC50 (human CB1 receptors) is reported as > 10000 nM.
For `CCC1COC(c2cc(OCC3CC3)c(C3CC3)cn2)=N1` (stereo not drawn) [Example 21, 2-[5-cyclopropyl-4-(cyclopropylmethoxy)pyridin-2-yl]-4-ethyl-4,5-dihydro-1,3-oxazole], the EC50 (human CB2 receptors) was 70 nM and the EC50 (human CB1 receptors) was > 10000 nM.
In the case of `CC(C)(C)c1nc(-c2cc(N3CCOCC3)c(C3CC3)cn2)no1` [Example 78, 4-[2-(5-tert-butyl-1,2,4-oxadiazol-3-yl)-5-cyclopropylpyridin-4-yl]morpholine], the EC50 (human CB2 receptors) is reported as 42.2 nM and the EC50 (human CB1 receptors) is reported as > 10000 nM.
`CC(C)(C)c1nc(-c2cc(OCC3(F)COC3)c(C3CC3)cn2)no1` [Example 105, 5-tert-butyl-3-[5-cyclopropyl-4-[(3-fluorooxetan-3-yl)methoxy]pyridin-2-yl]-1,2,4-oxadiazole] was tested, and the EC50 (human CB2 receptors) was 29.1 nM and the EC50 (human CB1 receptors) was > 10000 nM.
With `CCC1(C)N=C(c2cc(OCC(F)(F)F)c(C3CC3)cn2)NC1=O` (stereo not drawn) [Example 68, 2-[5-cyclopropyl-4-(2,2,2-trifluoroethoxy)pyridin-2-yl]-4-ethyl-4-methyl-1H-imidazol-5-one] the EC50 (human CB2 receptors) was 72.6 nM and the EC50 (human CB1 receptors) was > 10000 nM.
With `COCc1nc(-c2cc(OCC3CC3)c(C3CC3)cn2)no1` [Example 12, 3-[5-cyclopropyl-4-(cyclopropylmethoxy)pyridin-2-yl]-5-(methoxymethyl)-1,2,4-oxadiazole] the EC50 (human CB2 receptors) was 46.6 nM and the EC50 (human CB1 receptors) was > 10000 nM.
In the case of `CC(C)(C)c1nc(-c2cc(OCc3ccc(F)cn3)c(C3CC3)cn2)no1` [Example 118, 5-tert-butyl-3-[5-cyclopropyl-4-[(5-fluoropyridin-2-yl)methoxy]pyridin-2-yl]-1,2,4-oxadiazole], the EC50 (human CB2 receptors) is reported as 35 nM and the EC50 (human CB1 receptors) is reported as > 10000 nM.
In the case of `CC1(c2nc(-c3cc(OCC(F)(F)F)c(N4CC(F)(F)C4)cn3)no2)COC1` [Example 47, 3-[5-(3,3-difluoroazetidin-1-yl)-4-(2,2,2-trifluoroethoxy)pyridin-2-yl]-5-(3-methyloxetan-3-yl)-1,2,4-oxadiazole], the EC50 (human CB2 receptors) is reported as 166 nM and the EC50 (human CB1 receptors) is reported as > 10000 nM.
For `CCN(CC)CC(C)Oc1cc(-c2noc(C(C)(C)C)n2)ncc1C1CC1` (stereo not drawn) [Example 101, 2-[2-(5-tert-butyl-1,2,4-oxadiazol-3-yl)-5-cyclopropylpyridin-4-yl]oxy-N,N-diethylpropan-1-amine], the EC50 (human CB2 receptors) was 142 nM and the EC50 (human CB1 receptors) was > 10000 nM.
In the case of `CC(C)(C)c1nc(-c2cc(OCC3CC3)c(N3CC(F)(F)C3)cn2)no1` [Example 32, 5-tert-butyl-3-[4-(cyclopropylmethoxy)-5-(3,3-difluoroazetidin-1-yl)pyridin-2-yl]-1,2,4-oxadiazole], the EC50 (human CB2 receptors) is reported as 8.6 nM and the EC50 (human CB1 receptors) is reported as > 10000 nM.
With `C[C@H](Oc1cc(-c2nnc(C(C)(C)C)o2)ncc1C1CC1)C(F)(F)F` [Example 120, 2-tert-butyl-5-[5-cyclopropyl-4-[(2S)-1,1,1-trifluoropropan-2-yl]oxypyridin-2-yl]-1,3,4-oxadiazole] the EC50 (human CB2 receptors) was 63 nM and the EC50 (human CB1 receptors) was > 10000 nM.
In the case of `c1c(-c2nc(C3CCCC3)no2)ncc(C2CC2)c1OCC1CC1` [Example 4, 3-cyclopentyl-5-[5-cyclopropyl-4-(cyclopropylmethoxy)pyridin-2-yl]-1,2,4-oxadiazole], the EC50 (human CB2 receptors) is reported as 2.1 nM and the EC50 (human CB1 receptors) is reported as > 10000 nM.
In the case of `CC(C)(C)c1nc(-c2cc(OCC(F)F)c(C3CC3)cn2)no1` [Example 115, 5-tert-butyl-3-[5-cyclopropyl-4-(2,2-difluoroethoxy)pyridin-2-yl]-1,2,4-oxadiazole], the EC50 (human CB2 receptors) is reported as 2 nM and the EC50 (human CB1 receptors) is reported as > 10000 nM.
`CCC1(CC)COC(c2cc(OCC(F)(F)F)c(C3CC3)cn2)=N1` [Example 27, 2-[5-cyclopropyl-4-(2,2,2-trifluoroethoxy)pyridin-2-yl]-4,4-diethyl-5H-1,3-oxazole] was tested, and the EC50 (human CB2 receptors) was 3.5 nM and the EC50 (human CB1 receptors) was > 10000 nM.
`CC(C)(C)c1noc(-c2cc(OCC(F)(F)F)c(C3CC3)cn2)n1` [Example 40, 3-tert-butyl-5-[5-cyclopropyl-4-(2,2,2-trifluoroethoxy)pyridin-2-yl]-1,2,4-oxadiazole] was tested, and the EC50 (human CB2 receptors) was 2.2 nM and the EC50 (human CB1 receptors) was > 10000 nM.
`FC(F)(F)COc1cc(-c2ncon2)ncc1C1CC1` [Example 39, 3-[5-cyclopropyl-4-(2,2,2-trifluoroethoxy)pyridin-2-yl]-1,2,4-oxadiazole] was tested, and the EC50 (human CB2 receptors) was 434 nM and the EC50 (human CB1 receptors) was > 10000 nM.
For `FC(F)(F)COc1cc(-c2noc(C3CC3)n2)ncc1C1CC1` [Example 72, 5-cyclopropyl-3-[5-cyclopropyl-4-(2,2,2-trifluoroethoxy)pyridin-2-yl]-1,2,4-oxadiazole], the EC50 (human CB2 receptors) was 45.4 nM and the EC50 (human CB1 receptors) was > 10000 nM.
In the case of `CC(C)c1noc(-c2cc(OCC(F)(F)F)c(C3CC3)cn2)n1` [Example 42, 5-[5-cyclopropyl-4-(2,2,2-trifluoroethoxy)pyridin-2-yl]-3-propan-2-yl-1,2,4-oxadiazole], the EC50 (human CB2 receptors) is reported as 2.3 nM and the EC50 (human CB1 receptors) is reported as > 10000 nM.
In the case of `CC(C)(C)c1nc(-c2cc(OCC3CC3)c(S(C)(=O)=O)cn2)no1` [Example 43, 5-tert-butyl-3-[4-(cyclopropylmethoxy)-5-methylsulfonylpyridin-2-yl]-1,2,4-oxadiazole], the EC50 (human CB2 receptors) is reported as 40.9 nM and the EC50 (human CB1 receptors) is reported as > 10000 nM.
In the case of `CC(C)(C)c1nc(-c2cc(OC3CCOCC3)c(C3CC3)cn2)no1` [Example 63, 5-tert-butyl-3-[5-cyclopropyl-4-(oxan-4-yloxy)pyridin-2-yl]-1,2,4-oxadiazole], the EC50 (human CB2 receptors) is reported as 4.3 nM and the EC50 (human CB1 receptors) is reported as > 10000 nM.
In the case of `CC(C)(C)c1nc(-c2cc(OCC3COC3)c(C3CC3)cn2)no1` [Example 90, 5-tert-butyl-3-[5-cyclopropyl-4-(oxetan-3-ylmethoxy)pyridin-2-yl]-1,2,4-oxadiazole], the EC50 (human CB2 receptors) is reported as 11.8 nM and the EC50 (human CB1 receptors) is reported as > 10000 nM.
`FC(F)(F)c1nc(-c2cc(OCC3CC3)c(C3CC3)cn2)no1` [Example 19, 3-[5-cyclopropyl-4-(cyclopropylmethoxy)pyridin-2-yl]-5-(trifluoromethyl)-1,2,4-oxadiazole] was tested, and the EC50 (human CB2 receptors) was 13.7 nM and the EC50 (human CB1 receptors) was > 10000 nM.
With `OC1(c2nc(-c3cc(OCC(F)(F)F)c(N4CC(F)(F)C4)cn3)no2)CC1` [Example 46, 1-[3-[5-(3,3-difluoroazetidin-1-yl)-4-(2,2,2-trifluoroethoxy)pyridin-2-yl]-1,2,4-oxadiazol-5-yl]cyclopropan-1-ol] the EC50 (human CB2 receptors) was 180 nM and the EC50 (human CB1 receptors) was > 10000 nM.
With `OC1(c2nc(-c3cc(OCC(F)(F)F)c(C4CC4)cn3)no2)CC1` [Example 37, 1-[3-[5-cyclopropyl-4-(2,2,2-trifluoroethoxy)pyridin-2-yl]-1,2,4-oxadiazol-5-yl]cyclopropan-1-ol] the EC50 (human CB2 receptors) was 236 nM and the EC50 (human CB1 receptors) was > 10000 nM.
`CC(C)(C)c1nc(-c2cc(OC3CCOCC3)c(C3CC3)c(Cl)n2)no1` [Example 114, 5-tert-butyl-3-[6-chloro-5-cyclopropyl-4-(oxan-4-yloxy)pyridin-2-yl]-1,2,4-oxadiazole] showed an EC50 (human CB2 receptors) of 3.7 nM and an EC50 (human CB1 receptors) of 455 nM.
`c1ccc(-c2noc(-c3cc(OCC4CC4)c(C4CC4)cn3)n2)cc1` [Example 2, 5-[5-cyclopropyl-4-(cyclopropylmethoxy)pyridin-2-yl]-3-phenyl-1,2,4-oxadiazole] was tested, and the EC50 (human CB2 receptors) was 23.1 nM and the EC50 (human CB1 receptors) was > 10000 nM.
In the case of `CN1CCC[C@H]1COc1cc(-c2nc(C(C)(C)C)no2)ncc1C1CC1` [Example 122, 3-tert-butyl-5-[5-cyclopropyl-4-[[(2S)-1-methylpyrrolidin-2-yl]methoxy]pyridin-2-yl]-1,2,4-oxadiazole], the EC50 (human CB2 receptors) is reported as 146 nM and the EC50 (human CB1 receptors) is reported as > 10000 nM.
`CC(C)(C)c1nc(-c2cc(Oc3cccc(S(C)(=O)=O)c3)c(C3CC3)cn2)no1` [Example 108, 5-tert-butyl-3-[5-cyclopropyl-4-(3-methylsulfonylphenoxy)pyridin-2-yl]-1,2,4-oxadiazole] was tested, and the EC50 (human CB2 receptors) was 69.8 nM and the EC50 (human CB1 receptors) was > 10000 nM.
In the case of `FC(F)(F)COc1cc(C2=NC3(CCCCC3)CO2)ncc1C1CC1` [Example 31, 2-[5-cyclopropyl-4-(2,2,2-trifluoroethoxy)pyridin-2-yl]-3-oxa-1-azaspiro[4.5]dec-1-ene], the EC50 (human CB2 receptors) is reported as 19.4 nM and the EC50 (human CB1 receptors) is reported as > 10000 nM.
